PubChem BioAssay (NCI)
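Here, GI50 denotes the concentration required for 50% inhibition of growth. TGI is the concentration that stops growth completely.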

Columns and labels:
Experiment in all cases: growth of human tumour cells (NCI), 384-well format
HT29 colon = tested on: HT29 colon
HOP-92 NSCLC = tested on: HOP-92 NSCLC
A498 renal = tested on: A498 renal
A549 NSCLC = tested on: A549 NSCLC
786-0 renal = tested on: 786-0 renal
SF-268 CNS = tested on: SF-268 CNS
UO-31 renal = tested on: UO-31 renal
OVCAR-4 ovarian = tested on: OVCAR-4 ovarian
TK-10 renal = tested on: TK-10 renal
BT-549 breast = tested on: BT-549 breast
OVCAR-3 ovarian = tested on: OVCAR-3 ovarian
PC-3 prostate = tested on: PC-3 prostate
NCI/ADR-RES ovarian = tested on: NCI/ADR-RES ovarian
OVCAR-8 ovarian = tested on: OVCAR-8 ovarian
NCI-H226 lung = tested on: NCI-H226 lung
SF-295 CNS = tested on: SF-295 CNS
OVCAR-5 ovarian = tested on: OVCAR-5 ovarian
MALME-3M melanoma = tested on: MALME-3M melanoma
MCF7 breast = tested on: MCF7 breast
MDA-MB-231 breast = tested on: MDA-MB-231 breast
EKVX NSCLC = tested on: EKVX NSCLC
ACHN renal = tested on: ACHN renal
RXF 393 renal = tested on: RXF 393 renal
CAKI-1 renal = tested on: CAKI-1 renal
M14 melanoma = tested on: M14 melanoma
NCI-H322M lung = tested on: NCI-H322M lung
NCI-H460 NSCLC = tested on: NCI-H460 NSCLC
NCI-H23 lung = tested on: NCI-H23 lung
K-562 leukemia = tested on: K-562 leukemia
SF-539 CNS = tested on: SF-539 CNS
UACC-257 melanoma = tested on: UACC-257 melanoma
IGROV1 ovarian = tested on: IGROV1 ovarian
HOP-62 NSCLC = tested on: HOP-62 NSCLC
UACC-62 melanoma = tested on: UACC-62 melanoma
SK-MEL-28 melanoma = tested on: SK-MEL-28 melanoma
HCT-15 colon = tested on: HCT-15 colon
SW-620 colon = tested on: SW-620 colon
SN12C renal = tested on: SN12C renal
CCRF-CEM leukemia = tested on: CCRF-CEM leukemia
SR leukemia = tested on: SR leukemia
COLO 205 colon = tested on: COLO 205 colon
MDA-MB-435 melanoma = tested on: MDA-MB-435 melanoma
RPMI-8226 leukemia = tested on: RPMI-8226 leukemia
MDA-MB-468 breast = tested on: MDA-MB-468 breast
LOX IMVI melanoma = tested on: LOX IMVI melanoma
DU-145 prostate = tested on: DU-145 prostate
HL-60(TB) leukemia = tested on: HL-60(TB) leukemia
HS 578T breast = tested on: HS 578T breast
SK-OV-3 ovarian = tested on: SK-OV-3 ovarian
MOLT-4 leukemia = tested on: MOLT-4 leukemia
HCC-2998 colon = tested on: HCC-2998 colon
SNB-19 CNS = tested on: SNB-19 CNS
SNB-75 CNS = tested on: SNB-75 CNS
T-47D breast = tested on: T-47D breast
U251 glioblastoma = tested on: U251 glioblastoma
KM12 colon = tested on: KM12 colon
NCI-H522 lung = tested on: NCI-H522 lung
SK-MEL-5 melanoma = tested on: SK-MEL-5 melanoma

`CC[C@]1(O)C[C@H]2CN(CCc3c([nH]c4ccccc34)[C@@](C(=O)OC)(c3cc4c(cc3OC)N(C=O)[C@H]3[C@@](O)(C(=O)OC)[C@H](OC(C)=O)[C@]5(CC)C=CCN6CC[C@]43[C@@H]65)C2)C1` was tested, and the TGI (HT29 colon) was 36200 nM, the GI50 (HOP-92 NSCLC) was less than 23.2 nM and the TGI (HOP-92 NSCLC) was 41100 nM. The GI50 (A498 renal) was less than 16.3 nM, the TGI (A498 renal) was 844 nM and the GI50 (A549 NSCLC) was 34.6 nM. It also gave a GI50 ([…]-0 renal) of 14.3 nM, a TGI (786-0 renal) of 48100 nM and a TGI (SF-268 CNS) of 20300 nM. It also gave a GI50 (UO-31 renal) of 446 nM, a TGI (UO-31 renal) greater than 84800 nM and a GI50 (OVCAR-4 ovarian) of 1400 nM. The GI50 (TK-10 renal) was 54.5 nM, the TGI (BT-549 breast) was 32.9 nM and the TGI (OVCAR-3 ovarian) was less than 11 nM. The GI50 (PC-3 prostate) was less than 10.5 nM, the TGI (PC-3 prostate) was greater than 61200 nM and the GI50 (NCI/ADR-RES ovarian) was 1870 nM. It also gave a TGI (NCI/ADR-RES ovarian) of 4570 nM, a GI50 (OVCAR-8 ovarian) of less than 12.1 nM and a TGI (OVCAR-8 ovarian) of 47 nM. For the same compound, the GI50 (NCI-H226 lung) was 39.9 nM, the TGI (NCI-H226 lung) was greater than 84900 nM and the GI50 (SF-295 CNS) was less than 14.2 nM. It also gave a TGI (SF-295 CNS) of less than 23.1 nM, a GI50 (OVCAR-5 ovarian) of 44.2 nM and a TGI (MALME-3M melanoma) of 29300 nM. For the same compound, the TGI (MCF7 breast) was 4320 nM, the TGI (MDA-MB-231 breast) was greater than 93800 nM and the GI50 (EKVX NSCLC) was 34.2 nM. The TGI (EKVX NSCLC) was greater than 91800 nM, the GI50 (ACHN renal) was 262 nM and the TGI (ACHN renal) was greater than 95900 nM. It also gave a TGI (RXF 393 renal) of 78100 nM, a GI50 (CAKI-1 renal) of 30.4 nM and a TGI (CAKI-1 renal) of 18100 nM. The TGI (M14 melanoma) was 17800 nM, the GI50 (NCI-H322M lung) was 34 nM and the TGI (NCI-H460 NSCLC) was 13.1 nM. For the same compound, the TGI (NCI-H23 lung) was 49.9 nM, the TGI (K-562 leukemia) was less than 10.8 nM and the TGI (SF-539 CNS) was less than 12.2 nM. For the same compound, the TGI (UACC-257 melanoma) was 20200 nM, the GI50 (IGROV1 ovarian) was less than 27.3 nM and the TGI (IGROV1 ovarian) was greater than 35600 nM. The TGI (HOP-62 NSCLC) was 2330 nM, the TGI (UACC-62 melanoma) was 26000 nM and the TGI (SK-MEL-28 melanoma) was 56200 nM. It also gave a GI50 (HCT-15 colon) of 72 nM and a TGI (HCT-15 colon) of 1310 nM.

In the case of `CCN1CCN(Cc2ccc(-c3cc4c(N[C@H](C)c5ccccc5)ncnc4[nH]3)cc2)CC1`, the GI50 (HT29 colon) is reported as 1450 nM, the TGI (HT29 colon) is reported as 2930 nM and the GI50 (SW-620 colon) is reported as 1770 nM. It also gave a TGI (SW-620 colon) of 3510 nM, a GI50 (HOP-92 NSCLC) of 1260 nM and a TGI (HOP-92 NSCLC) of 2640 nM. The GI50 (A498 renal) was 1220 nM, the TGI (A498 renal) was 2610 nM and the GI50 (A549 NSCLC) was 1060 nM. The TGI (A549 NSCLC) was 3520 nM, the GI50 (SN12C renal) was 203 nM and the TGI (SN12C renal) was 2070 nM. It also gave a GI50 (CCRF-CEM leukemia) of 1830 nM, a TGI (CCRF-CEM leukemia) of 3230 nM and a GI50 (SR leukemia) of 1760 nM. The TGI (SR leukemia) was 3150 nM, the GI50 ([…]-0 renal) was 1070 nM and the TGI (786-0 renal) was 2280 nM. It also gave a GI50 (SF-268 CNS) of 1490 nM, a TGI (SF-268 CNS) of 3350 nM and a GI50 (UO-31 renal) of 1330 nM. It also gave a TGI (UO-31 renal) of 11900 nM, a GI50 (OVCAR-4 ovarian) of 1560 nM and a TGI (OVCAR-4 ovarian) of 5250 nM. The GI50 (TK-10 renal) was 389 nM, the TGI (TK-10 renal) was 2040 nM and the GI50 (BT-549 breast) was 1590 nM. It also gave a TGI (BT-549 breast) of 3140 nM, a GI50 (OVCAR-3 ovarian) of 1320 nM and a TGI (OVCAR-3 ovarian) of 5360 nM. It also gave a GI50 (PC-3 prostate) of 1850 nM, a TGI (PC-3 prostate) of 8640 nM and a GI50 (COLO 205 colon) of 1780 nM. For the same compound, the TGI (COLO 205 colon) was 3290 nM, the GI50 (NCI/ADR-RES ovarian) was 2020 nM and the TGI (NCI/ADR-RES ovarian) was 6110 nM. For the same compound, the GI50 (OVCAR-8 ovarian) was 1570 nM, the TGI (OVCAR-8 ovarian) was 3740 nM and the GI50 (MDA-MB-435 melanoma) was 1620 nM. The TGI (MDA-MB-435 melanoma) was 3040 nM, the GI50 (NCI-H226 lung) was 1100 nM and the TGI (NCI-H226 lung) was 4440 nM. For the same compound, the GI50 (SF-295 CNS) was 1710 nM, the TGI (SF-295 CNS) was 3230 nM and the GI50 (RPMI-8226 leukemia) was 1280 nM. It also gave a TGI (RPMI-8226 leukemia) of 2550 nM, a GI50 (MDA-MB-468 breast) of 22.7 nM and a TGI (MDA-MB-468 breast) of 60 nM. It also gave a GI50 (OVCAR-5 ovarian) of 440 nM, a TGI (OVCAR-5 ovarian) of 2790 nM and a GI50 (MALME-3M melanoma) of 1380 nM. It also gave a TGI (MALME-3M melanoma) of 2680 nM, a GI50 (MCF7 breast) of 1490 nM and a TGI (MCF7 breast) of 2970 nM. It also gave a GI50 (MDA-MB-231 breast) of 1560 nM, a TGI (MDA-MB-231 breast) of 3640 nM and a GI50 (EKVX NSCLC) of 91.2 nM. The TGI (EKVX NSCLC) was 2340 nM, the GI50 (LOX IMVI melanoma) was 1570 nM and the TGI (LOX IMVI melanoma) was 2910 nM. The GI50 (ACHN renal) was 89 nM, the TGI (ACHN renal) was 1520 nM and the GI50 (DU-145 prostate) was 1540 nM. For the same compound, the TGI (DU-145 prostate) was 10800 nM, the GI50 (RXF 393 renal) was 1420 nM and the TGI (RXF 393 renal) was 2810 nM. For the same compound, the GI50 (CAKI-1 renal) was 299 nM, the TGI (CAKI-1 renal) was 1880 nM and the GI50 (HL-60(TB) leukemia) was 1660 nM. The TGI (HL-60(TB) leukemia) was 3020 nM, the GI50 (HS 578T breast) was 1480 nM and the TGI (HS 578T breast) was 2830 nM. For the same compound, the GI50 (SK-OV-3 ovarian) was 349 nM, the TGI (SK-OV-3 ovarian) was 1710 nM and the GI50 (MOLT-4 leukemia) was 1340 nM. For the same compound, the TGI (MOLT-4 leukemia) was 2620 nM, the GI50 (HCC-2998 colon) was 1560 nM and the TGI (HCC-2998 colon) was 3040 nM. For the same compound, the GI50 (M14 melanoma) was 1590 nM, the TGI (M14 melanoma) was 2950 nM and the GI50 (NCI-H322M lung) was 51.7 nM. For the same compound, the TGI (NCI-H322M lung) was 1130 nM, the GI50 (NCI-H460 NSCLC) was 1750 nM and the TGI (NCI-H460 NSCLC) was 3570 nM. The GI50 (NCI-H23 lung) was 1520 nM, the TGI (NCI-H23 lung) was 3940 nM and the GI50 (K-562 leukemia) was 217 nM. For the same compound, the TGI (K-562 leukemia) was 550 nM, the GI50 (SNB-19 CNS) was 2460 nM and the TGI (SNB-19 CNS) was 11600 nM. The GI50 (SF-539 CNS) was 1560 nM, the TGI (SF-539 CNS) was 2910 nM and the GI50 (UACC-257 melanoma) was 1360 nM. It also gave a TGI (UACC-257 melanoma) of 2640 nM, a GI50 (IGROV1 ovarian) of 120 nM and a TGI (IGROV1 ovarian) of 695 nM. The GI50 (SNB-75 CNS) was 2040 nM, the TGI (SNB-75 CNS) was 5980 nM and the GI50 (T-47D breast) was 439 nM. For the same compound, the TGI (T-47D breast) was 2590 nM, the GI50 (U251 glioblastoma) was 1800 nM and the TGI (U251 glioblastoma) was 3620 nM. The GI50 (HOP-62 NSCLC) was 1660 nM, the TGI (HOP-62 NSCLC) was 3310 nM and the GI50 (KM12 colon) was 1920 nM. The TGI (KM12 colon) was 4070 nM, the GI50 (NCI-H522 lung) was 111 nM and the TGI (NCI-H522 lung) was 1320 nM. It also gave a GI50 (UACC-62 melanoma) of 1620 nM, a TGI (UACC-62 melanoma) of 3000 nM and a GI50 (SK-MEL-28 melanoma) of 1590 nM. It also gave a TGI (SK-MEL-28 melanoma) of 2940 nM, a GI50 (HCT-15 colon) of 1360 nM and a TGI (HCT-15 colon) of 2750 nM. The GI50 (SK-MEL-5 melanoma) was 1530 nM and the TGI (SK-MEL-5 melanoma) was 2870 nM.
